2 compounds from patent US4518789A, “Phenyl alpha-acyloxyacetamide derivatives and their therapeutic use” (priority 1983, dated 1985) can be followed below.

Test [1] relates to scratching or licking induced by pruritic agent. Put plainly: Screening for anti-pruritic effect, topical application, hairless mouse challenged with pruritic agent. The test is classed as in vivo. The conditions noted are these: 5% solution topical, 30 minutes observation. From the text: Either the mouse or the rat may be used as a screening model for anti-pruritic compounds. Before testing hair is plucked from the test site of skin in haired animals. Therefore hairless strains of mouse or the strain of rat known as fuzzy rat is preferred as a screening model for the present purpose.
A test composition containing 5% phenyl-alpha-acyloxyacetamide derivative in solution was topically applied to the left dorsal skin of a hairless mouse and a control vehicle solution was topically applied to the right dorsal skin of the same mouse. The same topical applications were repeated three times at 30 minute intervals. A challenging composition containing a pruritic agent, i.e. itch provoking substance, was then topically applied in a volume of 0.05 ml on both left and right dorsal skin of the same mouse. For the next 30 minutes the mouse was carefully observed for signs and symptoms of scratching or licking at the skin sites where the challenging pruritic composition had been topically applied.
If the mouse scratched or licked indiscriminately at both left and right sides, the test composition was determined to have no anti-pruritic property. […] To confirm the anti-pruritic effect of the test composition, the test solution was later topically applied to the right instead of the left dorsal skin of the same mouse. […]

For test [2], the system named is calming or quieting behaviour. Briefly: Tranquilizing effect, subcutaneous administration in mice. The format is in vivo, hairless mice, white hairy mice. The following applies: 1 to 2% solution. As to the method: Hairless mice, white hairy mice and dogs were used in these studies.
N-phenethyl phenyl-alpha-acetoxyacetamide, N-ethyl phenyl-alpha-acetoxyacetamide or other phenyl-alpha-acyloxyacetamide derivative of the instant invention was prepared as a 1 to 2% solution or as gelatin capsules containing 75 to 300 mg per capsule of the active ingredient. Hairless mice or white hairy mice five in each group were injected subcutaneously with the test solution in a volume of 0.1 ml. The same procedure was repeated once more 3 hours later. For the next 8 hours and also at 24 hours later, all the mice were carefully observed and examined for any signs and evidences of calming or quieting effects caused by the test compound.
Parameters and criteria used for sedative or tranquilizing effect were the same as that described in the foregoing section.

On to `CCNC(=O)C(OC(C)=O)c1ccccc1` (stereo not drawn) [N-ethyl phenyl-alpha-acetoxyacetamide], for which the Anti-pruritic Effect entry in test [1] is on record as “substantial anti-pruritic effect”. Besides, in test [2], the tranquilizing effect entry is listed as “no detectable signs of sedation”.

For the compound `CC(=O)OC(C(=O)NCCc1ccccc1)c1ccccc1` (stereo not drawn) [N-phenethyl phenyl-alpha-acetoxyacetamide], in test [1], the Anti-pruritic Effect entry is given as “substantial anti-pruritic effect”. Besides, the tranquilizing effect entry in test [2] was “marked degrees of calming effect”.
